Measurements as given in ChEMBL document CHEMBL1681747, “Novel second generation analogs of eribulin. Part II: Orally available and active against resistant tumors in vivo” (Bioorg Med Chem Lett, 2011).

Tests used:
[1] = Cytotoxicity against human MES-SA/Dx5-Rx1 cells; assay type: functional, cell-based
MES-SA = experiment: Fold resistant ratio of IC50 for MES-SA/Dx5-Rx1 cells to IC50 for human MES-SA cells
[2] = Cytotoxicity against human MES-SA cells; assay type: functional, cell-based
DLD-1 = experiment: Cytotoxicity against human DLD1 cells; assay type: functional, cell-based
HCT-15 = experiment: Cytotoxicity against human HCT15 cells; assay type: functional, cell-based

Row | Compound | IC50 [1] [nM] | Ratio IC50 (MES-SA) | IC50 [2] [nM] | IC50 (DLD-1) [nM] | IC50 (HCT-15) [nM]
1 | C=C1C[C@@H]2CC[C@@]34C[C@H]5O[C@H]6[C@@H](O3)[C@H]3O[C@H](CC[C@@H]3O[C@H]6[C@H]5O4)CC(=O)C[C@@H]3[C@@H](OC)[C@@H](C[C@@H](CN(C)c4ncccn4)OC)O[C@H]3C[C@H]3O[C@@H](CC[C@@H]1O2)C[C@@H](C)C3=C | 10.1 | 4.66 | 2.17 | 6.9 | 5.4
2 | C=C1C[C@@H]2CC[C@@]34C[C@H]5O[C@H]6[C@@H](O3)[C@H]3O[C@H](CC[C@@H]3O[C@H]6[C@H]5O4)CC(=O)C[C@@H]3[C@@H](OC)[C@@H](C[C@@H](CN4C[C@@H]4C)OC)O[C@H]3C[C@H]3O[C@@H](CC[C@@H]1O2)C[C@@H](C)C3=C (stereo partly drawn) | 2.23 | 18.26 | 0.13 | 0.47 | 0.67
3 | C#CCN(CC#C)C[C@H](C[C@H]1O[C@H]2C[C@H]3O[C@@H](CC[C@@H]4O[C@@H](CC[C@@]56C[C@H]7O[C@H]8[C@@H](O5)[C@H]5O[C@H](CC[C@@H]5O[C@H]8[C@H]7O6)CC(=O)C[C@@H]2[C@H]1OC)CC4=C)C[C@@H](C)C3=C)OC | 0.53 | 3.99 | 0.13 | 0.28 | 0.17
4 | C=C1C[C@@H]2CC[C@@]34C[C@H]5O[C@H]6[C@@H](O3)[C@H]3O[C@H](CC[C@@H]3O[C@H]6[C@H]5O4)CC(=O)C[C@@H]3[C@@H](OC)[C@@H](C[C@@H](CN4CCN(C(=O)OCC)CC4)OC)O[C@H]3C[C@H]3O[C@@H](CC[C@@H]1O2)C[C@@H](C)C3=C | 3.05 | 38.1 | 0.08 | – | –
5 | C=C1C[C@@H]2CC[C@@]34C[C@H]5O[C@H]6[C@@H](O3)[C@H]3O[C@H](CC[C@@H]3O[C@H]6[C@H]5O4)CC(=O)C[C@@H]3[C@@H](OC)[C@@H](CCN4CCOCC4)O[C@H]3C[C@H]3O[C@@H](CC[C@@H]1O2)C[C@@H](C)C3=C | – | – | – | 0.23 | 0.16
6 | C=CCN(CC=C)C[C@H](C[C@H]1O[C@H]2C[C@H]3O[C@@H](CC[C@@H]4O[C@@H](CC[C@@]56C[C@H]7O[C@H]8[C@@H](O5)[C@H]5O[C@H](CC[C@@H]5O[C@H]8[C@H]7O6)CC(=O)C[C@@H]2[C@H]1OC)CC4=C)C[C@@H](C)C3=C)OC | 1.01 | 6.26 | 0.17 | 0.44 | 0.27
7 | C#CCN(CC#C)CC[C@H]1O[C@H]2C[C@H]3O[C@@H](CC[C@@H]4O[C@@H](CC[C@@]56C[C@H]7O[C@H]8[C@@H](O5)[C@H]5O[C@H](CC[C@@H]5O[C@H]8[C@H]7O6)CC(=O)C[C@@H]2[C@H]1OC)CC4=C)C[C@@H](C)C3=C | 3.99 | 5.65 | 0.69 | 1.42 | 0.89
8 | C=C1C[C@@H]2CC[C@@]34C[C@H]5O[C@H]6[C@@H](O3)[C@H]3O[C@H](CC[C@@H]3O[C@H]6[C@H]5O4)CC(=O)C[C@@H]3[C@@H](OC)[C@@H](C[C@H](O)CN4CCOCC4)O[C@H]3C[C@H]3O[C@@H](CC[C@@H]1O2)C[C@@H](C)C3=C | 7.26 | 49.82 | 0.15 | 0.31 | 0.36
9 | C=C1C[C@@H]2CC[C@@]34C[C@H]5O[C@H]6[C@@H](O3)[C@H]3O[C@H](CC[C@@H]3O[C@H]6[C@H]5O4)CC(=O)C[C@@H]3[C@@H](OC)[C@@H](C[C@@H](CN4CCN(C(F)(F)F)CC4)OC)O[C@H]3C[C@H]3O[C@@H](CC[C@@H]1O2)C[C@@H](C)C3=C | 0.83 | 6.03 | 0.14 | 0.17 | 0.15
10 | C=C1C[C@@H]2CC[C@@]34C[C@H]5O[C@H]6[C@@H](O3)[C@H]3O[C@H](CC[C@@H]3O[C@H]6[C@H]5O4)CC(=O)C[C@@H]3[C@@H](OC)[C@@H](C[C@@H](CN4CCN(S(=O)(=O)c5ccc(C)cc5)CC4)OC)O[C@H]3C[C@H]3O[C@@H](CC[C@@H]1O2)C[C@@H](C)C3=C | 39.1 | 12.35 | 3.16 | 0.99 | 0.62
11 | C=C(C)CN(CC)C[C@H](C[C@H]1O[C@H]2C[C@H]3O[C@@H](CC[C@@H]4O[C@@H](CC[C@@]56C[C@H]7O[C@H]8[C@@H](O5)[C@H]5O[C@H](CC[C@@H]5O[C@H]8[C@H]7O6)CC(=O)C[C@@H]2[C@H]1OC)CC4=C)C[C@@H](C)C3=C)OC | – | – | – | 0.51 | 0.34
12 | C#CCN(C)C[C@H](C[C@H]1O[C@H]2C[C@H]3O[C@@H](CC[C@@H]4O[C@@H](CC[C@@]56C[C@H]7O[C@H]8[C@@H](O5)[C@H]5O[C@H](CC[C@@H]5O[C@H]8[C@H]7O6)CC(=O)C[C@@H]2[C@H]1OC)CC4=C)C[C@@H](C)C3=C)OC | – | – | – | 0.31 | 0.19
13 | C=C(C)CN(CC)CC[C@H]1O[C@H]2C[C@H]3O[C@@H](CC[C@@H]4O[C@@H](CC[C@@]56C[C@H]7O[C@H]8[C@@H](O5)[C@H]5O[C@H](CC[C@@H]5O[C@H]8[C@H]7O6)CC(=O)C[C@@H]2[C@H]1OC)CC4=C)C[C@@H](C)C3=C | – | – | – | 0.61 | 0.46
14 | C=C1C[C@@H]2CC[C@@]34C[C@H]5O[C@H]6[C@@H](O3)[C@H]3O[C@H](CC[C@@H]3O[C@H]6[C@H]5O4)CC(=O)C[C@@H]3[C@@H](OC)[C@@H](C[C@@H](CN4CC4C)OC)O[C@H]3C[C@H]3O[C@@H](CC[C@@H]1O2)C[C@@H](C)C3=C (stereo partly drawn) | 2.55 | 19.91 | 0.13 | 0.29 | 0.4
15 | C=CCN(C)C[C@H](C[C@H]1O[C@H]2C[C@H]3O[C@@H](CC[C@@H]4O[C@@H](CC[C@@]56C[C@H]7O[C@H]8[C@@H](O5)[C@H]5O[C@H](CC[C@@H]5O[C@H]8[C@H]7O6)CC(=O)C[C@@H]2[C@H]1OC)CC4=C)C[C@@H](C)C3=C)OC | 1.95 | 29.4 | 0.07 | 0.23 | 0.22
16 | C=C1C[C@@H]2CC[C@@]34C[C@H]5O[C@H]6[C@@H](O3)[C@H]3O[C@H](CC[C@@H]3O[C@H]6[C@H]5O4)CC(=O)C[C@@H]3[C@@H](OC)[C@@H](CCN4CCC(C(F)(F)F)CC4)O[C@H]3C[C@H]3O[C@@H](CC[C@@H]1O2)C[C@@H](C)C3=C | – | – | – | 0.22 | 0.14
17 | C=C1C[C@@H]2CC[C@@]34C[C@H]5O[C@H]6[C@@H](O3)[C@H]3O[C@H](CC[C@@H]3O[C@H]6[C@H]5O4)CC(=O)C[C@@H]3[C@@H](OC)[C@@H](C[C@@H](CNCC(=O)OCCCC)OC)O[C@H]3C[C@H]3O[C@@H](CC[C@@H]1O2)C[C@@H](C)C3=C | 1.6 | 5.83 | 0.28 | 0.58 | 0.37
18 | C=C1C[C@@H]2CC[C@@]34C[C@H]5O[C@H]6[C@@H](O3)[C@H]3O[C@H](CC[C@@H]3O[C@H]6[C@H]5O4)CC(=O)C[C@@H]3[C@@H](OC)[C@@H](C[C@@H](CN4C[C@H]4C)OC)O[C@H]3C[C@H]3O[C@@H](CC[C@@H]1O2)C[C@@H](C)C3=C (stereo partly drawn) | 2.79 | 18.04 | 0.16 | 0.53 | 0.78
19 | C=C1C[C@@H]2CC[C@@]34C[C@H]5O[C@H]6[C@@H](O3)[C@H]3O[C@H](CC[C@@H]3O[C@H]6[C@H]5O4)CC(=O)C[C@@H]3[C@@H](OC)[C@@H](CCN)O[C@H]3C[C@H]3O[C@@H](CC[C@@H]1O2)C[C@@H](C)C3=C | 47.6 | 288.17 | 0.17 | 4.67 | 8.57
20 | C=CCN(CC=C)CC[C@H]1O[C@H]2C[C@H]3O[C@@H](CC[C@@H]4O[C@@H](CC[C@@]56C[C@H]7O[C@H]8[C@@H](O5)[C@H]5O[C@H](CC[C@@H]5O[C@H]8[C@H]7O6)CC(=O)C[C@@H]2[C@H]1OC)CC4=C)C[C@@H](C)C3=C | 1.15 | 6.57 | 0.17 | 0.31 | 0.21
